Source: US6380203B1, “Angiogenesis inhibitors” (Merck & Co., Inc., priority 1998, dated 2002)

- melting point: 149 to 151 °C
Compound: c1cc(-c2cnn3cc(-c4ccc(OCCN5CCOCC5)cc4)cnc23)cs1 [Example 4, 3-(3-thienyl)-6-(4-(2-(4-morpholinyl)ethoxy)phenyl) pyrazolo(1,5-A)pyrimidine]
